Measurements taken from patent publication US20220144938A1, “IDENTIFICATION AND TARGETING OF TUMOR PROMOTING CARCINOMA ASSOCIATED FIBROBLASTS FOR DIAGNOSIS AND TREATMENT OF CANCER AND OTHER DISEASES” (Board of Regents, The University of Texas System, priority 2018, published 2022).
Entries after “also recorded” stand apart in the source; their conditions may differ.

Key:
PDAC tumors (KPPF GEM) [1] = assay: Histopathological scoring and tumor burden of pancreas tumors; assay type: in vivo; settings: gemcitabine in KPPF;IL-6smaKO vs KPPF mice
Excerpt: Mice. FSF-Kras^G12D/+ (Schonhuber et al., 2014), Pdx1-Flp (Schonhuber et al., 2014), Trp53^frt/+ (Lee et al., 2012), LSL-Kras^G12D/+ (Hingorani et al., 2005), Pdx1-Cre (Hingorani et al., 2005), αSMA-Cre (LeBleu et al., 2013), αSMA-RFP (LeBleu et al., 2013), Rosa26-loxP-Stop-loxP-YFP (Ozdemir et al., 2014), Tgfbr2^loxP/loxP (Ijichi et al., 2006), and IL-6^loxP/loxP (Quintana et al., 2013) mouse strains were previously documented. The Rosa26-CAG-loxP-frt-Stop-frt-FireflyLuc-EGFP-loxP-RenillaLuc-tdTomato (referred to as R26^Dual), FSF-Kras^G12D/+, Pdx1-Flp, and Trp53^frt/+ strains were kindly provided by D. Saur, and the R26R-Brainbow2.1/Confetti (referred to as R26^Confetti) strain was purchased from Jackson Laboratory (Stock 013731). The IL-6^−/− strain was generated by crossing the IL-6^loxP/loxP strain with CMV-Cre strain (Jackson Laboratory; Stock 006054). […] Mice were maintained on a mixed genetic background and both male and female mice were evaluated. […] Some of the tissues analyzed from the PKT;αSMA-TK GEM were from mice that were previously published (Ozdemir et al., 2014). […]
Histopathological Scoring. […] Tumor scores for orthotopic tumors were attributed on a scale from 1 (minor involvement) to 4 (extensive involvement), which evaluated on H&E sections of the entire pancreas the relative tumor involvement. […]

[2] = tested on: phospho-Stat3, phospho-ERK1/2, phospho-Akt; assay: Immunohistochemistry for phospho-Stat3, phospho-ERK1/2 and phospho-Akt in tumors; assay type: in vivo, mice
Procedure: (§1) Formalin-fixed, paraffin-embedded (FFPE) sections were processed for immunohistochemical (IHC) staining as previously described (Zheng et al., 2015), after Citrate based antigen retrieval (pH=6). For FAP staining in mouse FFPE sections citrate-based antigen retrieval was performed at pH 7.4. Staining for αSMA was performed with M.O.M. kit (Vector Laboratories) following the manufacturer's instructions. For all other staining, sections were incubated with biotinylated goat anti-rabbit and streptavidin HRP (Biocare Medical), each for 10 min. For all staining, counterstaining with hematoxylin was performed and DAB positivity was examined in ten visual fields at 200× magnification. […] The images were quantified for positive area using NIH ImageJ analysis software (αSMA, CD31, CK19, cleaved caspase-3, Ki67, MTS, phospho-Akt, phospho-ERK1/2, phospho-Stat3). For αSMA and FAP double immunofluorescence in human FFPE sections, secondary anti-sheep Alexa Fluor 488 and anti-mouse Alexa Fluor 534 antibodies were incubated for 30 min at RT. For αSMA and FAP IHC on FAP-TK and control tumor sections, immunoreactive score (IRS) were obtained from the sum of distribution and intensity scores for each section, established on a scale of 1 to 4 (Meyerholz & Beck, 2018).

[3] = tested on: IL-6 and Acta2 (αSMA) transcripts; assay: qPCR and immunolabeling of IL-6 and αSMA in tumors; assay type: in vivo; settings: tumors of KPPF mice following gemcitabine treatment
Procedure: as §1, with “For αSMA and FAP IHC on FAP-TK and control tumor sections, immunoreactive score (IRS) were obtained from the sum of distribution and intensity scores for each section, established on a scale of 1 to 4 (Meyerholz & Beck, 2018).” left out
Gene expression analyses and global gene expression profiling. […] The expression level of detected genes was normalized to that of Gapdh housekeeping gene. […] Primer sequences for detected genes are listed below. […]

[4] = tested on: PDAC tumors lacking p53 (KPPF); assay: Survival of PDAC genetically engineered mice under treatment (Kaplan-Meier, log rank); assay type: in vivo
Excerpt: Mice. FSF-Kras^G12D/+ (Schonhuber et al., 2014), Pdx1-Flp (Schonhuber et al., 2014), Trp53^frt/+ (Lee et al., 2012), LSL-Kras^G12D/+ (Hingorani et al., 2005), Pdx1-Cre (Hingorani et al., 2005), αSMA-Cre (LeBleu et al., 2013), αSMA-RFP (LeBleu et al., 2013), Rosa26-loxP-Stop-loxP-YFP (Ozdemir et al., 2014), Tgfbr2^loxP/loxP (Ijichi et al., 2006), and IL-6^loxP/loxP (Quintana et al., 2013) mouse strains were previously documented. The Rosa26-CAG-loxP-frt-Stop-frt-FireflyLuc-EGFP-loxP-RenillaLuc-tdTomato (referred to as R26^Dual), FSF-Kras^G12D/+, Pdx1-Flp, and Trp53^frt/+ strains were kindly provided by D. Saur, and the R26R-Brainbow2.1/Confetti (referred to as R26^Confetti) strain was purchased from Jackson Laboratory (Stock 013731). The IL-6^−/− strain was generated by crossing the IL-6^loxP/loxP strain with CMV-Cre strain (Jackson Laboratory; Stock 006054). The FAP-TK transgenic strain was newly generated: a 5 kb sequence flanking the FAP promoter and partial Exon 1 (Ex1) was cloned into pORF-HSV1-TK vector (Invivogen) using NotI and AgeI. The sequence-confirmed FAP-TK construct was released from the vector using NotI and SwaI before purification and injection into fertilized eggs. The transgenic mice were generated on the C57Bl/6 genetic background. These mice were bred onto PDAC GEM or implanted orthotopically with 689KPC cancer cells, as previously described (Kamerkar et al., 2017). Mice were maintained on a mixed genetic background and both male and female mice were evaluated. Mice were given gemcitabine (G-4177, LC Laboratories) intraperitoneally (i.p.) twice per week at 40 mg/kg of body weight. Gemcitabine treatment was initiated at 35 days of age. Ganciclovir (GCV; sud-gcv, Invivogen) was administered i.p. daily at 50 mg/kg of body weight ([…]). GCV was administered to PKT mice at 28 to 30 days of age, and to PKP mice at 50-51 days of age. Some of the tissues analyzed from the PKT;αSMA-TK GEM were from mice that were previously published (Ozdemir et al., 2014). […]

PDAC tumors (KPPF GEM) [5] = assay: Immunohistochemistry/staining of pancreas sections for CD31, Ki67, cleaved caspase 3 and MTS; assay type: in vivo, mice
Procedure: as §1
Histopathological Scoring. Mouse tissues were fixed in 10% neutral buffered formalin, embedded in paraffin, and sectioned at 5 μm thickness. Sections were processed for haematoxylin and eosin (H&E) staining and/or Masson's trichrome staining (MTS) using Gomori's Trichome Stain Kit (38016SS2, Leica Biosystems). Histopathological assessments were conducted in a blinded fashion by scoring H&E-stained sections for relative percentages of the listed histopathological phenotypes. Tumor scores for orthotopic tumors were attributed on a scale from 1 (minor involvement) to 4 (extensive involvement), which evaluated on H&E sections of the entire pancreas the relative tumor involvement. Microscopic metastases were examined in H&E-stained tissue sections of the liver and lung. Positivity (one or more lesions in one tissue) was confirmed by CK19 staining. Images were obtained with a Leica DM 1000 LED microscope and an MC120 HD Microscope Camera with Las V4.4 Software (Leica).

intra-tumoral T cells = assay: Flow cytometry characterization of tumor immune infiltration; assay type: in vivo; settings: gemcitabine treatment, mice with IL-6
Procedure: For the characterization of immune infiltration, tumors (from 2.5-month-old mice, treated with saline or gemcitabine for 2 weeks) were weighed, minced with gentleMACS Dissociator, and digested in 2 mL solution containing 1 mg/mL Liberase TL (Roche) and 0.2 mg/mL DNase I in DMEM media at 37° C. for 30 min. Spleens were weighed and filtered through a 100 μm mesh. Peripheral blood was collected with EDTA-tube, incubated with ACK lysis buffer for 5 min, and proceeded to mesh filtration. The tissue lysates were filtered through a 100 μm mesh before immunostaining. The subsequent single-cells suspension was stained with Fixable Viability Dye eFluor 780 (eBioscience) and antibodies specified in Table 2. The percentage positive cells were analyzed by FlowJo 10.1 and gated on CD45 positivity. Unstained, viability stain only, and single-stained beads (eBioscience) were used as compensation controls. Singlets were gated using forward scatter (FSC) height (FSC-H) and FSC area (FSC-A) event characteristics.

[6] = gemcitabine with loss of IL-6 from αSMA+ CAFs (KPPF;IL-6smaKO)
[7] = tumors of KPPF mice treated with gemcitabine
[8] = gemcitabine in mice with αSMA+ CAFs-specific loss of IL-6, vs controls

Nc1ccn([C@@H]2O[C@H](CO)[C@@H](O)C2(F)F)c(=O)n1 [gemcitabine]
tumor burden (PDAC tumors (KPPF GEM) [1]): reduced tumor burden
histopathology (PDAC tumors (KPPF GEM) [1]; moribund endpoint): improved histopathology
gemcitabine-induced change in phosphorylated Akt [2, 6]: significantly attenuated
gemcitabine-induced change in phosphorylated ERK1/2 [2, 6]: significantly attenuated
gemcitabine-induced change in phosphorylated Stat3 [2, 6]: significantly attenuated
levels of phosphorylated Akt in cancer cells [2, 7]: elevated levels
levels of phosphorylated ERK1/2 in cancer cells [2, 7]: elevated levels
levels of phosphorylated Stat3 in cancer cells [2, 7]: elevated levels
IL-6 transcript levels and positive cells [3]: elevated
αSMA transcript levels and αSMA+ CAFs [3]: elevated
overall survival ([4]; KPPF mice, gemcitabine 40 mg/kg i.p. twice per week, vs untreated KPPF mice): no benefit
overall survival ([4]; KPPF;IL-6smaKO mice (αSMA+ CAFs-specific loss of IL-6) treated with gemcitabine, vs KPPF mice treated with gemcitabine): increase in overall survival; also recorded: overall increase in survival
overall survival ([4]; KPPF;IL-6−/− mice (absent IL-6) treated with gemcitabine, vs KPPF mice treated with gemcitabine): increased overall survival; also recorded: overall increase in survival
cleaved caspase-3, indicative of apoptosis (PDAC tumors (KPPF GEM) [5]; gemcitabine concurrent with αSMA+ CAFs-specific loss of IL-6): further increased
cancer cell proliferation (PDAC tumors (KPPF GEM) [5]; [8]): did not significantly impact
tumor collagen deposition (PDAC tumors (KPPF GEM) [5]; [8]): did not significantly impact
tumor vasculature (PDAC tumors (KPPF GEM) [5]; [8]): did not significantly impact
cleaved caspase-3, indicative of apoptosis (PDAC tumors (KPPF GEM) [5]; mice treated with gemcitabine): elevated
intra-tumoral T cell frequencies (intra-tumoral T cells): minimally impacted
